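All cell lines were grown in 96-well plates and treated with compound for 48 hours. TGI denotes the concentration required for complete inhibition of growth.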
Tests used:
Experiment in all cases: inhibition of tumour cell growth, NCI panel, 48 h
[1] = tested on: MALME-3M melanoma
[2] = tested on: DU-145 prostate
[3] = tested on: NCI-H226 lung
[4] = tested on: SNB-19 CNS
[5] = tested on: U251 CNS
[6] = tested on: SF-268 CNS
[7] = tested on: M14 melanoma
[8] = tested on: MDA-MB-231 breast
[9] = tested on: OVCAR-3 ovarian
[10] = tested on: MDA-N
[11] = tested on: SK-MEL-28 melanoma
[12] = tested on: OVCAR-5 ovarian
[13] = tested on: LOX IMVI melanoma
[14] = tested on: OVCAR-4 ovarian
[15] = tested on: HT29 colon
[16] = tested on: A498 renal
[17] = tested on: NCI/ADR-RES ovarian
[18] = tested on: IGROV1 ovarian
[19] = tested on: SW-620 colon
[20] = tested on: HCT-116 colon
[21] = tested on: SR leukemia
[22] = tested on: SNB-75 CNS
[23] = tested on: TK-10 renal
[24] = tested on: MDA-MB-435
[25] = tested on: K-562 leukemia
[26] = tested on: UACC-257 melanoma
[27] = tested on: NCI-H460 lung
[28] = tested on: HS 578T breast
[29] = tested on: BT-549 breast
[30] = tested on: SK-MEL-5 melanoma
[31] = tested on: NCI-H522 lung
[32] = tested on: 786-0 renal
[33] = tested on: SK-OV-3 ovarian
[34] = tested on: SK-MEL-2 melanoma
[35] = tested on: ACHN renal
[36] = tested on: PC-3 prostate
[37] = tested on: CCRF-CEM leukemia
[38] = tested on: HOP-92 NSCLC
[39] = tested on: HL-60(TB) leukemia
[40] = tested on: HOP-62 NSCLC
[41] = tested on: UO-31 renal
[42] = tested on: COLO 205 colon
[43] = tested on: SF-539 CNS
[44] = tested on: OVCAR-8 ovarian
[45] = tested on: SF-295 CNS
[46] = tested on: RXF 393 renal
[47] = tested on: NCI-H23 lung
[48] = tested on: UACC-62 melanoma
[49] = tested on: SN12C renal
[50] = tested on: MCF7 breast
[51] = tested on: HCC-2998 colon
[52] = tested on: HCT-15 colon
[53] = tested on: A549 NSCLC
[54] = tested on: RPMI-8226 leukemia
[55] = tested on: MOLT-4 leukemia
[56] = tested on: T-47D breast
[57] = tested on: EKVX NSCLC
[58] = tested on: CAKI-1 renal
[59] = tested on: KM12 colon

Cc1cc(Cl)nc(Nc2nc3ccccc3[nH]2)n1
TGI [1]: > 100 µM
TGI [2]: > 100 µM
TGI [3]: > 100 µM
TGI [4]: > 100 µM
TGI [5]: > 100 µM
TGI [6]: > 100 µM
TGI [7]: > 100 µM
TGI [8]: > 100 µM
TGI [9]: > 100 µM
TGI [10]: > 100 µM
TGI [11]: > 100 µM
TGI [12]: > 100 µM
TGI [13]: > 100 µM
TGI [14]: > 100 µM
TGI [15]: > 100 µM
TGI [16]: > 100 µM
TGI [17]: > 100 µM
TGI [18]: > 100 µM
TGI [19]: > 100 µM
TGI [20]: > 100 µM
TGI [21]: > 100 µM
TGI [22]: > 100 µM
TGI [23]: > 100 µM
TGI [24]: > 100 µM
TGI [25]: > 100 µM
TGI [26]: > 100 µM
TGI [27]: > 100 µM
TGI [28]: > 100 µM
TGI [29]: > 100 µM
TGI [30]: > 100 µM
TGI [31]: 5.96 µM
TGI [32]: > 100 µM
TGI [33]: > 100 µM
TGI [34]: > 100 µM
TGI [35]: > 100 µM
TGI [36]: > 100 µM
TGI [37]: > 100 µM
TGI [38]: > 100 µM
TGI [39]: > 100 µM
TGI [40]: > 100 µM
TGI [41]: > 100 µM
TGI [42]: > 100 µM
TGI [43]: > 100 µM
TGI [44]: > 100 µM
TGI [45]: > 100 µM
TGI [46]: > 100 µM
TGI [47]: > 100 µM
TGI [48]: > 100 µM
TGI [49]: > 100 µM
TGI [50]: > 100 µM
TGI [51]: > 100 µM
TGI [52]: > 100 µM
TGI [53]: > 100 µM

CCOC(=O)C1=c2[nH]c3cccc4cccc(c43)n2C(=O)CC1
TGI [2]: > 100 µM
TGI [54]: > 100 µM
TGI [55]: > 100 µM
TGI [4]: > 100 µM
TGI [5]: > 100 µM
TGI [7]: > 100 µM
TGI [9]: > 100 µM
TGI [10]: > 100 µM
TGI [11]: > 100 µM
TGI [12]: > 100 µM
TGI [13]: 62.2 µM
TGI [14]: > 100 µM
TGI [56]: 69.8 µM
TGI [16]: > 100 µM
TGI [17]: > 100 µM
TGI [18]: > 100 µM
TGI [19]: 71.3 µM
TGI [20]: > 100 µM
TGI [21]: > 100 µM
TGI [22]: > 100 µM
TGI [23]: > 100 µM
TGI [24]: > 100 µM
TGI [25]: > 100 µM
TGI [26]: > 100 µM
TGI [27]: > 100 µM
TGI [29]: > 100 µM
TGI [30]: > 100 µM
TGI [32]: > 100 µM
TGI [33]: > 100 µM
TGI [34]: > 100 µM
TGI [35]: > 100 µM
TGI [36]: > 100 µM
TGI [37]: > 100 µM
TGI [57]: > 100 µM
TGI [38]: > 100 µM
TGI [58]: > 100 µM
TGI [59]: 89.3 µM
TGI [39]: 64 µM
TGI [40]: > 100 µM
TGI [41]: > 100 µM
TGI [42]: > 100 µM
TGI [44]: > 100 µM
TGI [45]: > 100 µM
TGI [46]: > 100 µM
TGI [47]: > 100 µM
TGI [48]: > 100 µM
TGI [49]: > 100 µM
TGI [50]: > 100 µM
TGI [51]: > 100 µM
TGI [52]: > 100 µM
TGI [53]: > 100 µM

O=c1[nH]c(=O)n(COCCOCc2ccccc2)cc1Nc1ccccc1
TGI [1]: > 100 µM
TGI [2]: > 100 µM
TGI [3]: > 100 µM
TGI [55]: > 100 µM
TGI [4]: > 100 µM
TGI [5]: > 100 µM
TGI [6]: > 100 µM
TGI [7]: > 100 µM
TGI [8]: > 100 µM
TGI [9]: > 100 µM
TGI [10]: > 100 µM
TGI [11]: > 100 µM
TGI [12]: > 100 µM
TGI [13]: > 100 µM
TGI [14]: > 100 µM
TGI [15]: > 100 µM
TGI [56]: > 100 µM
TGI [16]: > 100 µM
TGI [17]: > 100 µM
TGI [18]: > 100 µM
TGI [19]: > 100 µM
TGI [20]: > 100 µM
TGI [21]: > 100 µM
TGI [22]: > 100 µM
TGI [23]: > 100 µM
TGI [24]: > 100 µM
TGI [25]: > 100 µM
TGI [26]: > 100 µM
TGI [27]: > 100 µM
TGI [31]: > 100 µM
TGI [32]: > 100 µM
TGI [33]: > 100 µM
TGI [34]: > 100 µM
TGI [35]: > 100 µM
TGI [36]: > 100 µM
TGI [37]: > 100 µM
TGI [57]: > 100 µM
TGI [38]: > 100 µM
TGI [58]: > 100 µM
TGI [59]: > 100 µM
TGI [39]: > 100 µM
TGI [40]: > 100 µM
TGI [41]: > 100 µM
TGI [42]: > 100 µM
TGI [43]: > 100 µM
TGI [44]: > 100 µM
TGI [45]: > 100 µM
TGI [46]: > 100 µM
TGI [47]: > 100 µM
TGI [48]: > 100 µM
TGI [49]: > 100 µM
TGI [50]: > 100 µM
TGI [51]: > 100 µM
TGI [52]: > 100 µM
TGI [53]: > 100 µM

CC#CC(O)(C(=O)OC1CCC2CCC1N2C)C1CCCC1 (configuration not stated)
TGI [1]: > 100 µM
TGI [2]: > 100 µM
TGI [54]: > 100 µM
TGI [3]: > 100 µM
TGI [55]: > 100 µM
TGI [4]: > 100 µM
TGI [5]: > 10 µM
TGI [6]: > 100 µM
TGI [7]: > 100 µM
TGI [8]: > 100 µM
TGI [9]: > 100 µM
TGI [10]: > 100 µM
TGI [11]: > 100 µM
TGI [12]: > 10 µM
TGI [13]: > 100 µM
TGI [15]: > 100 µM
TGI [56]: > 100 µM
TGI [17]: > 10 µM
TGI [18]: > 100 µM
TGI [19]: > 100 µM
TGI [20]: > 100 µM
TGI [21]: > 100 µM
TGI [22]: > 100 µM
TGI [23]: > 100 µM
TGI [26]: > 100 µM
TGI [30]: > 100 µM
TGI [31]: > 100 µM
TGI [32]: > 100 µM
TGI [33]: > 100 µM
TGI [35]: > 10 µM
TGI [36]: > 100 µM
TGI [57]: > 100 µM
TGI [58]: > 100 µM
TGI [59]: > 100 µM
TGI [40]: > 100 µM
TGI [41]: > 100 µM
TGI [42]: > 100 µM
TGI [43]: > 100 µM
TGI [44]: > 100 µM
TGI [45]: > 100 µM
TGI [46]: > 100 µM
TGI [47]: > 100 µM
TGI [48]: > 100 µM
TGI [49]: > 100 µM
TGI [50]: > 100 µM
TGI [51]: > 100 µM
TGI [52]: > 100 µM
TGI [53]: > 100 µM

C#Cc1cc(-c2nc3ccccc3s2)ccc1N
TGI [1]: 63.4 µM
TGI [2]: 39.5 µM
TGI [54]: 76.8 µM
TGI [3]: 47.8 µM
TGI [55]: 91.1 µM
TGI [4]: 66.9 µM
TGI [5]: 63.6 µM
TGI [6]: > 100 µM
TGI [7]: 34.5 µM
TGI [9]: 42.4 µM
TGI [10]: 97.6 µM
TGI [11]: 35.6 µM
TGI [12]: > 100 µM
TGI [13]: 27.8 µM
TGI [14]: 47.1 µM
TGI [15]: 33 µM
TGI [56]: 45.6 µM
TGI [17]: 86.5 µM
TGI [18]: 53.8 µM
TGI [19]: 81.8 µM
TGI [20]: 32.9 µM
TGI [21]: 92.4 µM
TGI [23]: 36.8 µM
TGI [24]: 40.4 µM
TGI [25]: 89 µM
TGI [26]: 27.9 µM
TGI [27]: 74.5 µM
TGI [29]: 94.9 µM
TGI [30]: 68.6 µM
TGI [31]: 32.3 µM
TGI [32]: > 100 µM
TGI [33]: 69.7 µM
TGI [34]: 35.9 µM
TGI [35]: 70.3 µM
TGI [36]: 94.1 µM
TGI [37]: 56 µM
TGI [57]: 65 µM
TGI [38]: 44.7 µM
TGI [58]: 50.4 µM
TGI [59]: 46.9 µM
TGI [39]: > 100 µM
TGI [40]: > 100 µM
TGI [41]: 56.3 µM
TGI [42]: 32.9 µM
TGI [43]: 81.3 µM
TGI [44]: > 100 µM
TGI [45]: 54.8 µM
TGI [46]: 93.9 µM
TGI [47]: 55.9 µM
TGI [48]: 36.6 µM
TGI [49]: 79 µM
TGI [50]: 31.4 µM
TGI [51]: 32.6 µM
TGI [52]: 42.8 µM
TGI [53]: 42.8 µM

Reference: PubChem BioAssay (NCI)
